Consider one compound from patent publication US20250134889A1, “TARGETING IRE1 KINASE AND FMRP FOR PROPHYLAXIS, MANAGEMENT AND TREATMENT OF ATHEROSCLEROSIS” (CEDARS-SINAI MEDICAL CENTER, priority 2022, published 2025).

The test system of this assay is IRE1 kinase activity. Put plainly: ER stress-induced IRE1 and FMRP phosphorylation in transfected MEFs (western blot). The assay is classed as cell-based, mouse. Conditions: AMG-18 25 μM 1 hour pre-treatment, TG 600 nM 4 hours. How it is done: FIGS. 1A-1K depict FMRP is a new inositol-requiring enzyme-1 (IRE1) kinase substrate. A representative blot is shown from at least n=3 independent experiments. Data are mean±SEM. Unpaired 1-test with Welch's correction or paired 1-test. * P≤0.05, ** P≤0.01, *** P≤0.001. • 1A. STING analysis of published IRE1 interactome proteins in relation to FMRP (Acosta-Alvear et al., 2018). • 1B. HEK293T cells were co-transfected with IRE1 and FMRP plasmids and stimulated with TG (600 nM) or TM (1 mg/ml) for 2 hours. Protein lysates were immunoprecipitated (IP) with anti-IRE1 or IgG (control) antibodies and analyzed by Western blotting using specific antibodies for FMRP and IRE1 (n=3). • 1C. RAW 264.7 mouse macrophages were treated with either oxLDL (50 μg/ml) or TG (300 nM) for 6 hours. Protein lysates were treated with λ Phosphatase (PPase) for 30 minutes and analyzed by western blotting using specific antibodies for pFMRP, FMRP, pIRE1, IRE1 and β-Actin. pFMRP/FMRP fold induction is depicted above the blots (n=6). • 1D. […] Protein lysates were analyzed by western blotting using specific antibodies for pFMRP, FMRP, pIRE1, IRE1 and β-Actin. pFMRP/FMRP-fold induction is depicted above the blots (n=5). • 1E. […] Protein lysates were analyzed by western blotting using specific antibodies for pFMRP, FMRP, pIRE1, IRE1 and β-Actin. pFMRP/FMRP fold induction is depicted above the blots (n=4). • 1F. […]

Turning to `Cc1ccc2c(NS(=O)(=O)c3ccccc3Cl)cccc2c1Oc1ncccc1-c1ccnc(N[C@H]2CCCNC2)n1` [AMG-18], the “FMRP phosphorylation (pFMRP/FMRP)” value is “clearly reducing” and the IRE1 phosphorylation result is listed as “prevented”.
